Data reported in patent publication US20190117670A1, “LONGER-ACTING PROGESTIN PRODRUG CONTRACEPTIVES” (Evestra, Inc., priority 2017, published 2019).

Tests used:
[1] = system: cycling rats of Sprague-Dawley strain; assay: Estrous suppression assay (long term injectable contraceptive), anti-ovulatory activity in female rat model; type: in vivo; conditions: single s.c. injection of milled suspension, adult female rats, vaginal smear until cycling re-established
Experimental: A stainless steel grinding bowl with a lid and seal along with three 10 mm stainless steel balls were used to formulate suspensions for injection. The compounds were weighed and added to the grinding bowl and steel balls. 1.5 mL of formulation vehicle was added to the grinding bowl, via pipette. The milling conditions used as listed: 20 minutes, 20 Hz. After milling, the suspension was transferred to a volumetric flask. Formulation vehicle was used to dilute the milled suspension to produce the desired injection dose.
Protocol: Testing Long Term Injectable Contraceptive
Adult female rats (180-200 g body weight) were used for the study (adapted over 1 week before starting the study).
For each compound, two doses were tested (2 and 4 mg/rat).
Long acting properties of each preparation had been determined in an estrous suppression assay using virgin, mature (180-200 g) cycling rats of Sprague-Dawley strain. Upon receipt the animals were smeared daily (procedure described as below) for cyclicity and those who were showing two consecutive cycles were used for the study. Each animal was injected subcutaneously (s.c) with 0.5 ml of the test preparation (in the vehicle as described above) on the same day regardless of the stage of the cycle. Each compound was initially tested in 6 rats. Everyday excluding weekend, smears were taken starting on the day after injection and continued until such time that cornification of vaginal epithelium was observed and cycling was re-established (Bialy G, Blye R P, Enever R P, Naqvi R H, Lindberg M C. Long-acting contraceptive agents: structure activity relationships in a series of norethisterone and levonorgestrel esters. Steroids 1983, v 41, p 361).
Epithelium and lamina propria of the vagina undergo characteristic changes during the cycle. This cyclical changes was used in rodents to stage cycle diagnosis (1). During the cycle, it comes to a complete replacement of the epithelium. In order to determine the stage of the cycle, vaginal solution/mucus was collected as follows. The rat was fixed with one hand. With the other hand, a small moistened cotton swab (2-3 mm diameter) was inserted into the vagina and removed by gently rotating cell material. This was done with caution, since excessive irritation could induce a pseudopregnancy stage in animals. A drop of water on a slide was applied and dabbed the cotton swab in it. The smear was assessed under the microscope (Nikon Eclipse Ti, Magnification: 10×0.25) (Nelson J F, Felicio L S, Randall P K, Sims C, Finch C E. A longitudinal study of estrous cyclicity in aging C57BL/6J mice: I. Cycle frequency, length and vaginal cytology. Biol Reprod. 1982 September; 27(2):327-39).
The smear of diestrous is characterized by some neutrophils and a few small degenerated, irregularly shaped epithelial cells.
The microscopic image of the smear contains a moderate number of epithelial cells with large nuclei, which are usually visible as cell clusters.
The lamina propria leukocytes migrate into the epithelium. The smear is characterized by many big horny epithelial cells.
In metestrous stage, masses of polymorphonuclear cells with some cornified epithelial cells in the smear will become visible.

[2] = 3 month injectable product Depo Provera; cited from earlier work
[3] = cited from earlier work

| Structure (SMILES) | Rat Anti-ovulatory Activity Days +/− 2 ([1]; 2 mg/rat) [days] | other results |
| --- | --- | --- |
| C#C[C@]1(OC(=O)COc2ccc(S(N)(=O)=O)c(F)c2)CCC2C3CCC4=CC(=O)CCC4C3CC[C@@]21CC (some centres unmarked) [EC653] | 15 | – |
| CC(=O)O[C@]1(C(C)=O)CC[C@H]2[C@@H]3C[C@H](C)C4=CC(=O)CC[C@]4(C)[C@H]3CC[C@@]21C [MPA, medroxyprogesterone acetate, reference compound] | 22 | Rat Anti-ovulatory Activity Days +/− 2 ([1]; 4 mg/rat): 40 days; undesirable effects [2]: increase of insulin levels, reduction of bone mass density, weight gain and enhanced risks for HIV infections |
| C#C[C@]1(OC(=O)CNc2ccccc2)CCC2C3CCC4=CC(=O)CCC4C3CC[C@@]21CC (some centres unmarked) [EC646] | 13 | – |
| C#C[C@]1(OC(=O)COc2ccc(Cl)cc2)CCC2C3CCC4=CC(=O)CCC4C3CC[C@@]21CC (some centres unmarked) [EC631] | 33.5 | – |
| C[C@H](O)C(=O)[C@@]1(C)CCC2C3CCC4=CC(=O)CCC4=C3CC[C@@]21C (some centres unmarked) [EC213 TMG, reference compound] | 19 | – |
| C#C[C@]1(OC(=O)COc2ccc(C)cc2)CCC2C3CCC4=CC(=O)CCC4C3CC[C@@]21CC (some centres unmarked) [EC629] | – | Rat Anti-ovulatory Activity Days +/− 2 ([1]; 4 mg/rat): 44.8 days |
| C#C[C@]1(OC(=O)COc2ccc(S(N)(=O)=O)cc2Cl)CCC2C3CCC4=CC(=O)CCC4C3CC[C@@]21CC (some centres unmarked) [EC648] | 18 | – |
| C#C[C@]1(OC(=O)COc2ccc(S(N)(=O)=O)cc2)CCC2C3CCC4=CC(=O)CCC4C3CC[C@@]21CC (some centres unmarked) [EC624] | 20.5 | – |
| C#C[C@]1(OC(=O)COc2cccc(-c3ccccc3)c2)CCC2C3CCC4=CC(=O)CCC4C3CC[C@@]21CC (some centres unmarked) [EC654] | 8 | – |
| C#C[C@]1(OC(=O)COc2ccccc2OC)CCC2C3CCC4=CC(=O)CCC4C3CC[C@@]21CC (some centres unmarked) [EC635] | 13 | – |
| C#C[C@]1(OC(=O)COc2cccc(Cl)c2)CCC2C3CCC4=CC(=O)CCC4C3CC[C@@]21CC (some centres unmarked) [EC630] | – | Rat Anti-ovulatory Activity Days +/− 2 ([1]; 4 mg/rat): 46.5 days |
| C#C[C@]1(OC(=O)COc2ccc(S(N)(=O)=O)c(Cl)c2)CCC2C3CCC4=CC(=O)CCC4C3CC[C@@]21CC (some centres unmarked) [EC650] | 18.5 | – |
| C#C[C@]1(OC(=O)COc2ccc(F)cc2)CCC2C3CCC4=CC(=O)CCC4C3CC[C@@]21CC (some centres unmarked) [EC640] | 31 | – |
| C#C[C@]1(OC(=O)COc2cccc(C)c2)CCC2C3CCC4=CC(=O)CCC4C3CC[C@@]21CC (some centres unmarked) [EC628] | – | Rat Anti-ovulatory Activity Days +/− 2 ([1]; 4 mg/rat): 36 days |
| C#C[C@]1(OC(=O)COc2ccc(S(C)(=O)=O)cc2)CCC2C3CCC4=CC(=O)CCC4C3CC[C@@]21CC (some centres unmarked) [EC645] | 31 | – |
| C#C[C@]1(OC(=O)COc2ccc(-c3ccccc3)cc2)CCC2C3CCC4=CC(=O)CCC4C3CC[C@@]21CC (some centres unmarked) [EC655] | 37 | – |
| C#C[C@]1(OC(=O)COc2cc(C)on2)CCC2C3CCC4=CC(=O)CCC4C3CC[C@@]21CC (some centres unmarked) [EC652] | 27 | – |
| C#C[C@]1(OC(=O)CCc2ccccc2OC)CCC2C3CCC4=CC(=O)CCC4C3CC[C@@]21CC (some centres unmarked) [EC643] | 3 | – |

| Structure (SMILES) | Rat Anti-ovulatory Activity Days +/− 2 ([1]; 2 mg/rat) [days] | other results |
| --- | --- | --- |
| C#C[C@]1(OC(=O)COc2ccc(S(N)(=O)=O)cc2C)CCC2C3CCC4=CC(=O)CCC4C3CC[C@@]21CC (some centres unmarked) [EC649] | 18.5 | – |
| C#C[C@]1(OC(=O)COc2ccccc2)CCC2C3CCC4=CC(=O)CCC4C3C(=C)C[C@@]21CC (some centres unmarked) [EC651] | 52 | – |
| C#C[C@]1(OC(=O)COc2ccccc2)CCC2C3CCC4=CC(=O)CCC4C3CC[C@@]21CC (some centres unmarked) [EC625] | 43 | Rat Anti-ovulatory Activity Days +/− 2 ([1]; 4 mg/rat): 69 days |
| C#C[C@]1(OC(=O)[C@H](C)Oc2ccccc2)CCC2C3CCC4=CC(=O)CCC4C3CC[C@@]21CC (some centres unmarked) [EC638] | 8 | – |
| C#C[C@]1(OC(=O)CSc2ccccc2)CCC2C3CCC4=CC(=O)CCC4C3CC[C@@]21CC (some centres unmarked) [EC647] | 20 | – |
| C#C[C@]1(OC(=O)COc2ccccc2C)CCC2C3CCC4=CC(=O)CCC4C3CC[C@@]21CC (some centres unmarked) [EC632] | 8.5 | – |
| C#C[C@]1(OC(=O)COc2ccc(C#N)cc2)CCC2C3CCC4=CC(=O)CCC4C3CC[C@@]21CC (some centres unmarked) [EC658] | 29 | – |
| C#C[C@]1(OC(=O)COc2cccc(F)c2)CCC2C3CCC4=CC(=O)CCC4C3CC[C@@]21CC (some centres unmarked) [EC639] | 31 | – |
| C#C[C@]1(OC(=O)COc2ccc3c(c2)OCO3)CCC2C3CCC4=CC(=O)CCC4C3CC[C@@]21CC (some centres unmarked) [EC644] | 20 | – |
| C#C[C@]1(OC(=O)CCc2ccccc2)CCC2C3CCC4=CC(=O)CCC4C3CC[C@@]21CC (some centres unmarked) [EC626] | – | Rat Anti-ovulatory Activity Days +/− 2 ([1]; 4 mg/rat): 20 days |
| C#C[C@]1(OC(=O)CCC)CCC2C3CCC4=CC(=O)CCC4C3CC[C@@]21CC (some centres unmarked) [EC600 LB, Levonorgestrel butanoate, reference compound] | 33 | contraceptive effect in the clinic [3]: failed in the clinic to reach a contraceptive effect for up to 6 month |
| C#C[C@]1(OC(=O)COc2cccc(S(N)(=O)=O)c2)CCC2C3CCC4=CC(=O)CCC4C3CC[C@@]21CC (some centres unmarked) [EC601] | 10 | Rat Anti-ovulatory Activity Days +/− 2 ([1]; 4 mg/rat): 34 days |
| C#C[C@]1(OC(=O)COc2cccc(OC)c2)CCC2C3CCC4=CC(=O)CCC4C3CC[C@@]21CC (some centres unmarked) [EC636] | 13 | – |
| C#C[C@]1(OC(=O)/C=C/c2ccccc2)CCC2C3CCC4=CC(=O)CCC4C3CC[C@@]21CC (some centres unmarked) [EC627] | – | Rat Anti-ovulatory Activity Days +/− 2 ([1]; 4 mg/rat): 6 days |
| C#C[C@]1(OC(=O)COc2cccnc2)CCC2C3CCC4=CC(=O)CCC4C3CC[C@@]21CC (some centres unmarked) [EC641] | 23 | – |
| C#C[C@]1(OC(=O)COc2ccccc2Cl)CCC2C3CCC4=CC(=O)CCC4C3CC[C@@]21CC (some centres unmarked) [EC633] | 16.3 | – |
| C#C[C@]1(OC(=O)COc2ccc(OC)cc2)CCC2C3CCC4=CC(=O)CCC4C3CC[C@@]21CC (some centres unmarked) [EC634] | 30 | – |
| C#C[C@]1(OC(=O)COc2ccccc2F)CCC2C3CCC4=CC(=O)CCC4C3CC[C@@]21CC (some centres unmarked) [EC642] | 41 | – |
